# From US10351575B2, “Bicyclic urea, thiourea, guanidine and cyanoguanidine compounds useful for the treatment of pain” (Array BioPharma Inc., priority 2012, dated 2019)
# How the values were obtained:
# Assay in all cases: KinaseProfiler off-target kinase profiling
# Assay type in all cases: biochemical
# Settings in all cases: 10 μM, ATP near Km
# p38delta = p38delta (Homo sapiens (Human), UniProt O15264)
# Summary of the method: (§1)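 Compounds were screened at 10 μM in duplicate, with ATP near the Km of each individual kinase. Activity is given as percent of control (POC), averaged over both replicates.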
# Plk2 = Plk2 (Homo sapiens (Human), UniProt Q9NYY3)
# Summary of the method: as §1
# CAMK2g = CAMK2g (Homo sapiens (Human), UniProt Q13555)
# Summary of the method: as §1
# FGFR4 = FGFR4 (Homo sapiens (Human), UniProt P22455)
# Summary of the method: as §1
# EGFR = EGFR (Homo sapiens (Human), UniProt P00533)
# Summary of the method: as §1
# NEK11 = NEK11 (Homo sapiens (Human), UniProt Q8NG66)
# Summary of the method: as §1
# FAK2 = FAK2 (Homo sapiens (Human), UniProt Q14289)
# Summary of the method: as §1
# MRCKalpha = MRCKalpha (Homo sapiens (Human), UniProt Q5VT25)
# Summary of the method: as §1
# PrKX = PrKX (Homo sapiens (Human), UniProt P51817)
# Summary of the method: as §1
# DCAMKL2 = DCAMKL2 (Homo sapiens (Human), UniProt Q8N568)
# Summary of the method: as §1
# SRPK1 = SRPK1 (Homo sapiens (Human), UniProt Q96SB4)
# Summary of the method: as §1
# Fyn = Fyn (Homo sapiens (Human), UniProt P06241)
# Summary of the method: as §1
# PAK4 = PAK4 (Homo sapiens (Human), UniProt O96013)
# Summary of the method: as §1
# ALK = ALK (Homo sapiens (Human), UniProt Q9UM73)
# Summary of the method: as §1
# FGFR1 = FGFR1 (Homo sapiens (Human), UniProt P11362)
# Summary of the method: as §1
# EphB4 = EphB4 (Homo sapiens (Human), UniProt P54760)
# Summary of the method: as §1
# SRC = SRC (Homo sapiens (Human), UniProt P12931)
# Summary of the method: as §1
# PKD1 = PKD1 (Homo sapiens (Human), UniProt Q15139)
# Summary of the method: as §1
# NEK3 = NEK3 (Homo sapiens (Human), UniProt P51956)
# Summary of the method: as §1
# ErbB4 = ErbB4 (Homo sapiens (Human), UniProt Q15303)
# Summary of the method: as §1
# DMPK = DMPK (Homo sapiens (Human), UniProt Q09013)
# Summary of the method: as §1
# AMPK(A1/B1/G1) = AMPK(A1/B1/G1) (Homo sapiens (Human), UniProt Q13131)
# Summary of the method: as §1
# CAMK2d = CAMK2d (Homo sapiens (Human), UniProt Q13557)
# Summary of the method: as §1
# Fgr = Fgr (Homo sapiens (Human), UniProt P09769)
# Summary of the method: as §1
# DAPK1 = DAPK1 (Homo sapiens (Human), UniProt P53355)
# Summary of the method: as §1
# AKT1 = AKT1 (Homo sapiens (Human), UniProt P31749)
# Summary of the method: as §1
# ERK1 = ERK1 (Homo sapiens (Human), UniProt P27361)
# Summary of the method: as §1
# TBK1 = TBK1 (Homo sapiens (Human), UniProt Q9UHD2)
# Summary of the method: as §1
# Fer = Fer (Homo sapiens (Human), UniProt P16591)
# Summary of the method: as §1
# CDK9/cyclinT1 = CDK9/cyclinT1 (Homo sapiens (Human), UniProt P50750)
# Summary of the method: as §1
# PAK6 = PAK6 (Homo sapiens (Human), UniProt Q9NQU5)
# Summary of the method: as §1
# BTK = BTK (Homo sapiens (Human), UniProt Q06187)
# Summary of the method: as §1
# TLK2 = TLK2 (Homo sapiens (Human), UniProt Q86UE8)
# Summary of the method: as §1
# Flt1 = Flt1 (Homo sapiens (Human), UniProt P17948)
# Summary of the method: as §1
# CLK3 = CLK3 (Homo sapiens (Human), UniProt P49761)
# Summary of the method: as §1
# SGK2 = SGK2 (Homo sapiens (Human), UniProt Q9HBY8)
# Summary of the method: as §1
# FAK = FAK (Homo sapiens (Human), UniProt Q05397)
# Summary of the method: as §1
# NEK7 = NEK7 (Homo sapiens (Human), UniProt Q8TDX7)
# Summary of the method: as §1
# Txk = Txk (Homo sapiens (Human), UniProt P42681)
# Summary of the method: as §1
# NEK7, sequence (Q8TDX7 whole entry): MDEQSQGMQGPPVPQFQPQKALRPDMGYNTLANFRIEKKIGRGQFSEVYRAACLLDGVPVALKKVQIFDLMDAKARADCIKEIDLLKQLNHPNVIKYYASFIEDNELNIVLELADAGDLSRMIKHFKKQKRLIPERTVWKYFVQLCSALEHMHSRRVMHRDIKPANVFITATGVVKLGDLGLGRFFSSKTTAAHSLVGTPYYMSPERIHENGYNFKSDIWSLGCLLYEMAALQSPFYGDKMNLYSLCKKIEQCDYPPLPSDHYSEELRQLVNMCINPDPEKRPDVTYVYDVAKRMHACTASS
# DAPK1, sequence (P53355 whole entry): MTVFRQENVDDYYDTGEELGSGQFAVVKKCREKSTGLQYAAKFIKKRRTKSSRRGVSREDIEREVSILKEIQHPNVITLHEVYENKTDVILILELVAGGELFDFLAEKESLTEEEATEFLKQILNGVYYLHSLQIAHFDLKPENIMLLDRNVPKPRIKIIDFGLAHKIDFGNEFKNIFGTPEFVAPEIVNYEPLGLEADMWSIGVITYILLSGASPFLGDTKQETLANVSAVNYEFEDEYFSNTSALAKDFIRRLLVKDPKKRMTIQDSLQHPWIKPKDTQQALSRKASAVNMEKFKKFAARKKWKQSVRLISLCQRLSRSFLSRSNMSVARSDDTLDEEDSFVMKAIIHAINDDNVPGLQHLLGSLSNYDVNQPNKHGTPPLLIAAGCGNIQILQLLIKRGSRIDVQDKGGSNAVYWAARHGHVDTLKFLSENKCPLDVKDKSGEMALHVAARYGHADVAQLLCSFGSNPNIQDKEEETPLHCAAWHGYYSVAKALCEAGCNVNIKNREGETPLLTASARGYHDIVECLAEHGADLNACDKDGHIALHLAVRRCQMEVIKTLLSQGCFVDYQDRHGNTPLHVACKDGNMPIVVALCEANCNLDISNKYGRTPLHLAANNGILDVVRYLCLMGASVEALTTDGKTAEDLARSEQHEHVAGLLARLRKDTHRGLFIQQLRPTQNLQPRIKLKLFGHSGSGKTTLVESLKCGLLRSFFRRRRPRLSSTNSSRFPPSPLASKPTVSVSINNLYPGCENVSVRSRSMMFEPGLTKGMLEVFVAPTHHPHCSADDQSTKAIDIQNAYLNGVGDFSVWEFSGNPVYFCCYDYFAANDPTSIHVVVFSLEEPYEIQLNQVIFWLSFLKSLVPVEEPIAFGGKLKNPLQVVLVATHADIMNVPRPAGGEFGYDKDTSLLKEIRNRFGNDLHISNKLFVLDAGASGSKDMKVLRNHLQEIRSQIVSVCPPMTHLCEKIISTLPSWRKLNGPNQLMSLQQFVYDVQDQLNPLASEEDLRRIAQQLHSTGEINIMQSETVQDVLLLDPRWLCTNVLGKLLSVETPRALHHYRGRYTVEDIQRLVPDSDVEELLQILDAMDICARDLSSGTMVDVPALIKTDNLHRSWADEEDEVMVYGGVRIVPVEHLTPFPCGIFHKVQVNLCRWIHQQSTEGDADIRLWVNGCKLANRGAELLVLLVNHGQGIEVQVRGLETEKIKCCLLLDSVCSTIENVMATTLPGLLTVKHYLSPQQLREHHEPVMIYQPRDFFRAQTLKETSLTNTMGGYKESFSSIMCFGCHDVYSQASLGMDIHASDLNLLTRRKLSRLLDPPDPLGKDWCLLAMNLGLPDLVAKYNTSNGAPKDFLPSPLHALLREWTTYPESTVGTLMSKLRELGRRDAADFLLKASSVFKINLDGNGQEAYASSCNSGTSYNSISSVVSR
# CDK9/cyclinT1, sequence (P50750 whole entry): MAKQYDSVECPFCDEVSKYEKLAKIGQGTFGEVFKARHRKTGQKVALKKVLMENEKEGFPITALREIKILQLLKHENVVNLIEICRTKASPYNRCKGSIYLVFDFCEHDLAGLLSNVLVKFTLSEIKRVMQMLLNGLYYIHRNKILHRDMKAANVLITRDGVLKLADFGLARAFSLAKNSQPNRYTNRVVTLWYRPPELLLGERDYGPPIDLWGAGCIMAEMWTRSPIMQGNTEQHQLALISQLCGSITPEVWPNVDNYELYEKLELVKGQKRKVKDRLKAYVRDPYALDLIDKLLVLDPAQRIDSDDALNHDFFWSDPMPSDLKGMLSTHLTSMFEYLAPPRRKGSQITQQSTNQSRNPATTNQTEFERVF
# CDK9/cyclinT1, sequence (O60563 whole entry partner): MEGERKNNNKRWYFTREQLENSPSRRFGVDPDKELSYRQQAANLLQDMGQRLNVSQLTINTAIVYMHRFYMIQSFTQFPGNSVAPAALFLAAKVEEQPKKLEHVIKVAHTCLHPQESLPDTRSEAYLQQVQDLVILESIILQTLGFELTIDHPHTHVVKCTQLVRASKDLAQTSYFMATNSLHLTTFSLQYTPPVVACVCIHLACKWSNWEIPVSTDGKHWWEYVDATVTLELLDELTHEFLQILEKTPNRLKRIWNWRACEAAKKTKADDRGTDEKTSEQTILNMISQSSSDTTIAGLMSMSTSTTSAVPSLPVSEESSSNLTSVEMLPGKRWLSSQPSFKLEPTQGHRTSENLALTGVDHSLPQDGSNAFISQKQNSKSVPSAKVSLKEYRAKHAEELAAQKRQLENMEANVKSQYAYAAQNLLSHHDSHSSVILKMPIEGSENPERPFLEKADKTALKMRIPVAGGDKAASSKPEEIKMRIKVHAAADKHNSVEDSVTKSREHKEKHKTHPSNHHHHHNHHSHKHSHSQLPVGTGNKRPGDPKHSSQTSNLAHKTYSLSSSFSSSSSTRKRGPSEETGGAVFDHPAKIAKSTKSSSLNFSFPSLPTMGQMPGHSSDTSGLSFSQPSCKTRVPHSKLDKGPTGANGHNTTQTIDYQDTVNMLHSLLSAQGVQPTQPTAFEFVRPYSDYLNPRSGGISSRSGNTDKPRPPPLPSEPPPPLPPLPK
# Fyn, sequence (P06241 whole entry): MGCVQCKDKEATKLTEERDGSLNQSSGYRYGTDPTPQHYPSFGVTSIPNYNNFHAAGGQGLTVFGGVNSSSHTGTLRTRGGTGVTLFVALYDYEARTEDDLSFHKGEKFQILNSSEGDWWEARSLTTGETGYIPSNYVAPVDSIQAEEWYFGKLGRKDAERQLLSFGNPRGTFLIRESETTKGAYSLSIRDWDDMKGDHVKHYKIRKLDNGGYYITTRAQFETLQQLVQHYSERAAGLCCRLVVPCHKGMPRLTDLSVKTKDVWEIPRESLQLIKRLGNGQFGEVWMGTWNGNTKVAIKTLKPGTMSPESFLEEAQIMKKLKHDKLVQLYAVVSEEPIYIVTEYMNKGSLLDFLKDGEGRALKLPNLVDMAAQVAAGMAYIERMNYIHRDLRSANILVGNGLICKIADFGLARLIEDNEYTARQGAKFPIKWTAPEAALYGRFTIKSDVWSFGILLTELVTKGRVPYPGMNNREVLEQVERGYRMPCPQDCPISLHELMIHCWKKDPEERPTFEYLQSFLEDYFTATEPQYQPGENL
# CAMK2g, sequence (Q13555 whole entry): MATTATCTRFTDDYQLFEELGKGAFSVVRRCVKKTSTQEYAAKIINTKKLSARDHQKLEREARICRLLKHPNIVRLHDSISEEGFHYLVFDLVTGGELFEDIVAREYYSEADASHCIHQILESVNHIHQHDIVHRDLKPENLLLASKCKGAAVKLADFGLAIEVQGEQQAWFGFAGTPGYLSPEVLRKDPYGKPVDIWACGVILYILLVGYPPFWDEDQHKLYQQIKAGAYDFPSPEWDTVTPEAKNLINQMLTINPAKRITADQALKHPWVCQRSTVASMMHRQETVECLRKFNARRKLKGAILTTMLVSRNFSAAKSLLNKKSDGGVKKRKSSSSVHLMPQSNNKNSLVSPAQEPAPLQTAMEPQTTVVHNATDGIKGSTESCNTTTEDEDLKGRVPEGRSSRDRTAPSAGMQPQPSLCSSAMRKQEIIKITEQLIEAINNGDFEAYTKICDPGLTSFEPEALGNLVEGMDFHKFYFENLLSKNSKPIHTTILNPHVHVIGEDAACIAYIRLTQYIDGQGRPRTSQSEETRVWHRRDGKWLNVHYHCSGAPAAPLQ
# AKT1, sequence (P31749 whole entry): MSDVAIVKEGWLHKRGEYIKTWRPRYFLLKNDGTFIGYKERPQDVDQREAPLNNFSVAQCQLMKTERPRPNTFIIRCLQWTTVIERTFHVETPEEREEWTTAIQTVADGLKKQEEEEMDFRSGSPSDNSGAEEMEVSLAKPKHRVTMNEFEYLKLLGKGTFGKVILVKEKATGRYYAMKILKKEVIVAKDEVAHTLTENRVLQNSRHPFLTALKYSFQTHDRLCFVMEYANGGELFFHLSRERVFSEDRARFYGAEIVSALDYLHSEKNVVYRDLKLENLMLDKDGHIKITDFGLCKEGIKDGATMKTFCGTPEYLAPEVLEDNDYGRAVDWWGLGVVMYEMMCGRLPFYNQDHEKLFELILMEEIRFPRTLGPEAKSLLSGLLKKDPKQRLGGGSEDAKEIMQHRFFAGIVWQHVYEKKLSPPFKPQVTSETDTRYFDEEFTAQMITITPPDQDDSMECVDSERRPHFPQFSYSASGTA
# ERK1, sequence (P27361 whole entry): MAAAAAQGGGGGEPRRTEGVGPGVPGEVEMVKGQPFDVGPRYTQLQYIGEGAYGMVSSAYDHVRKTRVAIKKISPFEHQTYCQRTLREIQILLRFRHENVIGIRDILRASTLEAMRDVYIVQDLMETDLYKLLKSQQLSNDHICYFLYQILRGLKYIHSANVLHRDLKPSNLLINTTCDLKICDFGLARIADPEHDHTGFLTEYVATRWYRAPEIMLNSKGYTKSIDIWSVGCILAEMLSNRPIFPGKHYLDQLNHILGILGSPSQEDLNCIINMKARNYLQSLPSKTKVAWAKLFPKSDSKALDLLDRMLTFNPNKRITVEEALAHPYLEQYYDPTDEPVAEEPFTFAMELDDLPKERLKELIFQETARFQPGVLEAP
compound,measurement,setting,value
"COCc1ccc2c(c1)C(NC(=O)Nc1c(C)c(-c3cnn(C)c3)nn1-c1ccccc1)COC2 (stereo not drawn) [Example 32, 1-(1′,4-dimethyl-1-phenyl-1H,1′H-[3,4′-bipyrazol]-5-yl)-3-(6-(methoxymethyl)isochroman-4-yl)urea]",Avg. POC,p38delta,113.5 POC
same,Avg. POC,Plk2,103 POC
same,Avg. POC,CAMK2g,105 POC
same,Avg. POC,FGFR4,139.5 POC
same,Avg. POC,EGFR,102 POC
same,Avg. POC,NEK11,108 POC
same,Avg. POC,FAK2,101.5 POC
same,Avg. POC,MRCKalpha,131 POC
same,Avg. POC,PrKX,110 POC
same,Avg. POC,DCAMKL2,146 POC
same,Avg. POC,SRPK1,99.5 POC
same,Avg. POC,Fyn,111 POC
same,Avg. POC,PAK4,98 POC
same,Avg. POC,ALK,127 POC
same,Avg. POC,FGFR1,104.5 POC
same,Avg. POC,EphB4,106 POC
same,Avg. POC,SRC,108.5 POC
same,Avg. POC,PKD1,98.5 POC
same,Avg. POC,NEK3,113 POC
same,Avg. POC,ErbB4,108.5 POC
same,Avg. POC,DMPK,98.5 POC
same,Avg. POC,AMPK(A1/B1/G1),138.5 POC
same,Avg. POC,CAMK2d,108.5 POC
same,Avg. POC,Fgr,109.5 POC
same,Avg. POC,DAPK1,131 POC
same,Avg. POC,AKT1,92 POC
same,Avg. POC,ERK1,107 POC
same,Avg. POC,TBK1,108.5 POC
same,Avg. POC,Fer,85 POC
same,Avg. POC,CDK9/cyclinT1,106.5 POC
same,Avg. POC,PAK6,116.5 POC
same,Avg. POC,BTK,119 POC
same,Avg. POC,TLK2,92 POC
same,Avg. POC,Flt1,103 POC
same,Avg. POC,CLK3,109 POC
same,Avg. POC,SGK2,123.5 POC
same,Avg. POC,FAK,116.5 POC
same,Avg. POC,NEK7,122.5 POC
same,Avg. POC,Txk,127 POC
